Source: the supplement of paper PMC10331698
± gives the standard deviation of the averaged measurements.

What was measured:
Assay in all cases: LOEC (log10 uM (lowest observed effect concentration))
[1] = compound: O=S(=O)(Cl)C(F)(F)C(F)(F)C(F)(F)C(F)(F)C(F)(F)C(F)(F)C(F)(F)C(F)(F)F [Perfluoro-1-octanesulfonyl chloride]
Protocol: (§1)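 BioMAP Diversity Plus panel in human primary cell co-cultures, 4 concentrations in duplicate blinded samples. Responses are log10 fold change versus DMSO control, processed with tcpl v2.1.0. A hit is called when responses at any concentration exceed the cutoff (the larger of 3*bmad or log10(1.2)); the lowest observed effect concentration (modl_ga, log10 uM) is reported for hits.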

[2] = compound: NS(=O)(=O)C(F)(F)C(F)(F)C(F)(F)C(F)(F)C(F)(F)C(F)(F)F [Perfluorohexanesulfonamide]
Protocol: as §1

[3] = compound: C=CC(=O)OCC(F)(F)C(F)(F)C(F)(F)COC(=O)C=C [1H,1H,5H,5H-Perfluoro-1,5-pentanediol diacrylate]
Protocol: as §1

[4] = compound: O=C(O)C(F)(F)C(F)(F)C(F)(F)C(F)(F)C(F)(F)C(F)(F)C(F)(F)C(F)(F)C(F)(F)C(F)F [11-H-Perfluoroundecanoic acid]
Protocol: as §1

[5] = compound: NC(=O)C(F)(F)C(F)(F)C(F)(F)C(F)(F)F [Nonafluoropentanamide]
Protocol: as §1

[6] = compound: COC(=O)C(F)(F)C(F)(F)OC(F)(C(F)(F)F)C(F)(F)OC(F)=C(F)F [Methyl perfluoro(3-(1-ethenyloxypropan-2-yloxy)propanoate)]
Protocol: as §1

| Test System | LOEC (log10 uM) [1] | LOEC (log10 uM) [2] | LOEC (log10 uM) [3] | LOEC (log10 uM) [4] | LOEC (log10 uM) [5] | LOEC (log10 uM) [6] |
| --- | --- | --- | --- | --- | --- | --- |
| 3C Eselectin up | 1.78 |  |  |  |  |  |
| 3C HLADR down |  | 1.78 | 1.07 ± 0.32 |  |  |  |
| 3C IL8 up | 1.78 |  |  |  |  |  |
| 3C MCP1 down |  |  | 1.3 | 1.78 |  |  |
| 3C Proliferation down |  | 1.78 | 0.301 | 1.78 |  |  |
| 3C SRB down | 1.78 | 1.78 | 1.3 | 1.78 |  |  |
| 3C Thrombomodulin down |  |  |  |  | 1.31 ± 0.66 |  |
| 3C Thrombomodulin up | 1.78 |  | 1.3 | 1.78 |  |  |
| 3C uPAR down | 1.78 |  | 1.78 |  |  |  |
| 4H Eotaxin3 down |  | 1.78 | 0.845 | 1.78 |  |  |
| 4H SRB down |  | 1.78 | 1.3 | 1.78 |  |  |
| 4H VCAM1 down |  |  | 1.3 | 1.78 |  |  |
| BE3C EGFR down | 1.78 |  |  | 1.3 |  |  |
| BE3C HLADR down | 1.78 |  | 1.3 | 1.3 |  |  |
| BE3C ICAM1 down | 1.78 |  | 1.3 | 1.3 |  |  |
| BE3C IL1a down | 1.78 |  | 1.3 | 1.3 |  |  |
| BE3C IL8 down | 1.78 | 1.3 | 1.3 |  |  |  |
| BE3C IP10 down | 1.3 | 1.54 ± 0.34 | 1.54 ± 0.34 | 0.845 |  |  |
| BE3C ITAC down | 1.78 |  | 1.78 | 1.3 |  | 0.845 |
| BE3C Keratin818 down |  |  |  | 1.54 ± 0.34 |  |  |
| BE3C MIG down | 1.78 |  | 1.78 | 1.3 |  |  |
| BE3C MMP1 up |  | 1.78 |  |  |  | 0.573 ± 0.39 |
| BE3C MMP9 down | 1.78 | 1.78 | 1.3 | 1.07 ± 0.32 |  |  |
| BE3C PAI1 down | 1.78 | 1.54 ± 0.34 |  | 1.3 |  |  |
| BE3C SRB down | 1.78 |  |  | 1.3 |  |  |
| BE3C tPA down | 1.78 | 1.78 | 1.3 | 1.3 |  | 0.0731 ± 0.32 |

| Test System | LOEC (log10 uM) [1] | LOEC (log10 uM) [2] | LOEC (log10 uM) [3] | LOEC (log10 uM) [4] | LOEC (log10 uM) [5] | LOEC (log10 uM) [6] |
| --- | --- | --- | --- | --- | --- | --- |
| BE3C uPA down | 1.78 |  | 1.78 | 1.3 |  |  |
| BE3C uPAR down | 1.78 | 1.78 | 1.78 | 1.3 |  |  |
| BF4T CD90 down |  |  |  | 1.54 ± 0.34 |  |  |
| BF4T Eotaxin3 down | 1.78 |  | 1.78 | 0.801 ± 0.71 |  |  |
| BF4T ICAM1 down | 1.78 |  | 1.07 ± 0.32 | 1.3 |  |  |
| BF4T IL1a down | 1.78 |  | 1.78 | 1.54 ± 0.34 |  |  |
| BF4T Keratin818 down |  |  | 1.78 | 1.78 |  |  |
| BF4T MCP1 down | 1.78 | 1.78 | 1.3 | 0.573 ± 0.39 |  |  |
| BF4T MMP3 down |  |  |  | 1.78 |  |  |
| BF4T MMP3 up |  |  |  |  |  | 0.845 |
| BF4T MMP9 down | 1.78 |  | 1.3 | 1.3 |  |  |
| BF4T PAI1 down | 1.78 |  | 1.3 | 0.801 ± 0.71 |  |  |
| BF4T SRB down | 1.78 |  | 1.78 | 1.3 |  |  |
| BF4T VCAM1 down |  | 1.54 ± 0.34 | 1.3 |  |  |  |
| BF4T tPA down | 1.54 ± 0.34 |  | 1.3 | 0.845 |  |  |
| BF4T uPA down | 1.78 |  | 1.78 | 1.78 |  |  |
| BT Bcell Proliferation up | 1.78 |  |  |  |  |  |
| BT PBMCCytotoxicity up | 1.78 |  |  | 1.78 |  |  |
| IMphg CD40 down |  | 1.78 | 1.3 |  |  |  |
| IMphg CD69 down |  | 1.78 | 1.78 |  |  |  |
| IMphg ESelectin down |  | 1.78 | 1.3 |  |  |  |
| IMphg IL1a up |  | 1.54 ± 0.34 |  |  |  | 0.845 |
| IMphg IL8 up |  | 1.78 |  |  |  | 0.301 |
| IMphg IL10 down | 1.78 | 1.78 | 1.3 | 1.78 |  |  |
| IMphg MCP1 down |  | 1.78 | 1.3 | 1.78 |  |  |
